Source: the supplement of paper PMC10307832

Assays:
Assay in all cases: relative viability (nuclei count vs DMSO), 5 days (fraction); higher = more cells survive
[1] = compound: N=C1NC(=O)/C(=C/c2ccc(O)cc2)S1 [Mirin] + CC(=O)c1c(C)c2cnc(Nc3ccc(N4CCNCC4)cn3)nc2n(C2CCCC2)c1=O [Palbociclib] (partner 0.5 µM)
Outline: (§1)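 Dosing by pin tool came one day after lung cancer cell lines were seeded in 1536-well plates, using either one drug or a fixed anchor-drug dose plus five library-drug doses (not always all listed) in √10 steps. After 5 days, nuclei were counted on 4× images. Relative viability is treated-well nuclei count divided by vehicle-well nuclei count, and values are medians of duplicate plates.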

[2] = compound: N=C1NC(=O)/C(=C/c2ccc(O)cc2)S1 [Mirin] + C[C@@H](Oc1cc(-c2cnn(C3CCNCC3)c2)cnc1N)c1c(Cl)ccc(F)c1Cl [Crizotinib] (partner 1 µM)
Outline: as §1

[3] = compound: N=C1NC(=O)/C(=C/c2ccc(O)cc2)S1 [Mirin] + CC(=O)Nc1cccc(-n2c(=O)n(C3CC3)c(=O)c3c(Nc4ccc(I)cc4F)n(C)c(=O)c(C)c32)c1 [Trametinib] (partner 0.02 µM)
Outline: as §1

[4] = compound: CCC1=CN=CN=C1N2CCN(CC2)CC3=NC4=C(N3)C=C(C=C4)C(F)(F)F + CS(=O)(=O)CCNCc1ccc(-c2ccc3ncnc(Nc4ccc(OCc5cccc(F)c5)c(Cl)c4)c3c2)o1 [Lapatinib] (partner 2 µM)
Outline: as §1

Cell Line	relative viability ([1]; first compound 0.25 µM)	relative viability ([1]; first compound 0.7906 µM)	relative viability ([1]; first compound 2.5 µM)	relative viability ([1]; first compound 7.906 µM)	relative viability ([1]; first compound 25 µM)	relative viability ([2]; first compound 0.25 µM)	relative viability ([2]; first compound 0.7906 µM)	relative viability ([2]; first compound 2.5 µM)	relative viability ([2]; first compound 7.906 µM)	relative viability ([2]; first compound 25 µM)	relative viability ([3]; first compound 0.25 µM)	relative viability ([3]; first compound 0.7906 µM)	relative viability ([3]; first compound 2.5 µM)	relative viability ([3]; first compound 7.906 µM)	relative viability ([3]; first compound 25 µM)	relative viability ([4]; first compound 0.04 µM)	relative viability ([4]; first compound 0.1265 µM)	relative viability ([4]; first compound 0.4 µM)	relative viability ([4]; first compound 1.265 µM)	relative viability ([4]; first compound 4 µM)
NCI-H2170	0.415	0.379	0.374	0.361	0.436	1.19	1.22	1.37	1.15	0.959	0.981	0.875	0.976	0.915	0.859	0.277	0.263	0.267	0.27	0.296
HCC-366	0.35	0.39	0.405	0.404	0.366	0.464	0.62	0.44	0.443	0.413	0.382	0.348	0.33	0.337	0.28	1.01	1.05	0.988		1.13
NCI-H2405	0.512		0.526	0.568	0.511	0.835	0.584	0.878	0.816	0.793	0.615		0.6	0.594	0.645	1.04	1.17	1.11		1.2
COR-L 105	0.426	0.415	0.376	0.432	0.42	0.781	0.996	0.714	0.855	0.697	0.428	0.482	0.431	0.449	0.451	0.35	0.331	0.395	0.275	0.426
NCI-H1793	0.331		0.349	0.335	0.339						0.497		0.39	0.352	0.607	0.581	0.652	0.534		0.635
ABC-1	0.548	0.693	0.573	0.728	0.482	0.993	1.09	0.866	0.918	0.664						1.23	1.24	1.25	1.01	0.98
IA-LM						0.813	0.916	0.744	0.849	0.981						0.85	0.781	0.736	0.923	0.893
NCI-H441	0.259	0.232	0.241	0.242	0.175	0.856	0.794	0.701	0.365	0.706	0.528	0.404	0.428	0.557	0.508					
NCI-H596						0.953	0.891	1.08	1.07	1.09	0.872	0.77	0.763	0.873	0.835	0.982	1.13	0.927	0.817	1.23
SW 900	0.478	0.485	0.499	0.464	0.503						0.95	0.76	0.826	0.971	0.653					
NCI-H1299						0.991	1.05	0.947	0.997	1.08						0.977	0.985	0.96	0.948	0.955
NCI-H1563						0.914	0.836	0.837	0.96	0.888						0.903	0.908	0.984	0.715	1.36
Calu-6						0.745	0.833	0.767	0.781	0.781						1.1	1.11	1.05	0.988	1.03
NCI-H1395	0.588		0.594	0.69	0.581						0.996		1.03	1.01	1	0.929	0.938	1.04	0.957	1.05
NCI-H1703						0.603	0.519	0.757	0.523	0.493						0.966	0.819	0.921	0.804	0.923
EBC-1						0.21	0.221	0.166	0.194	0.21						0.224	0.3	1.47	1.52	1.31
NCI-H2342	0.482	0.537	0.459		0.51						0.805	0.853	0.803		0.751					
ChaGo-K-1	0.915	0.961	0.973	0.919	0.68	0.984		1.12	1.04	0.866	0.833	0.836	0.94	0.756	0.677					
NCI-H1648	0.328		0.304	0.265	0.224						0.448		0.41	0.457	0.389					
NCI-H522	1.02	0.943	1.19	0.875	0.605						0.682	0.741	0.872	0.768	0.519					
A549						0.799	0.9	0.739	0.675	0.68						0.885	0.948	0.823	0.945	0.808
LCLC-103H	0.421	0.518	0.515	0.458	0.451	1.1	0.978	1.01	1.17	1.25	0.744	0.799	0.735	0.735	0.833					
